Measured values as given in patent publication US20100234351A1, “FUSED NITROGEN-COMPRISING HETEROCYCLIC COMPOUND” (TAKEDA PHARMACEUTICAL COMPANY LIMITED, priority 2006, published 2010).

Molecular target: T1, EGFR intracellular domain (Homo sapiens, UniProt P00533)
T1 construct: made in house; host or cells: SF-21 insect cells infected with recombinant baculovirus BAC-EGFR
Assay: Assay of EGFR kinase inhibitory activity
Assay type: biochemical
Settings: compound 1.0 μM, poly-Glu:Tyr (4:1) substrate, [γ-32P]ATP, read-out: Inhibitory rate (%) at 1.0 μM
Method: Human EGFR gene was cloned by RT-PCR using total RNA prepared from A431 cell as a template. The primer used for RT-PCR was prepared from base sequence (Genbank Accession No. X00588) information of EGFR gene, adding DYKDDDD base sequence encoding the peptide and a restriction enzyme recognition sequence to a base sequence (2191-3819 of Genbank Accession No. X00588 as a base, and corresponding to 669-1210 amino acid of Genbank Accession No. NP_005219 as a protein) encoding the EGFR intracellular domain, so that a DYKDDDD peptide tag would be attached to the N-terminus of the protein. The base sequence of the primer is shown in below.
The RT reaction was performed using Superscript First-Strand Synthesis System for RT-PCR (Invitrogen), and PCR reaction was performed using KOD-plus kit (TOYOBO). The obtained PCR product was electrophoresed on agarose gel (1%), and the DNA fragment amplified by PCR was recovered from the gel, and then digested with restriction enzymes Sal I and Sph I. The DNA treated with the restriction enzymes was electrophoresed on agarose gel (1%), and the obtained DNA fragment was recovered and ligated to plasmid pFASTBAC1 (Invitrogen) digested with restriction enzymes Sal I and Sph I to give expression plasmid pFB-EGFR. The base sequence of the inserted fragment was confirmed and found to be identical with the base sequence of the EGFR intracellular domain (2191-3819 of Genbank Accession X00588). Furthermore, virus stock BAG-EGFR of recombinant Baculovirus was prepared using BAC-TO-BAC Baculovirus Expression System (Invitrogen).
SF-21 cells were sown at 1×10^6 cells/mL to 1 L of Sf-900II SFM medium (Invitrogen) containing 10% fetal calf serum (trace), 50 mg/L Gentamicin (Invitrogen) and 0.1% Pluronic F-68 (Invitrogen), and cultured with shaking in a 2 L Erlenmeyer flask at 27° C., 100 rpm. After culture for 24 hr, recombinant Baculovirus BAC-EGFR (13.4 mL) was added thereto, and the cells were further cultured for 3 days. The culture medium was centrifuged at 2,000 rpm for 5 min to give virus infected cells. The infected cells were washed with phosphate buffered saline (Invitrogen), centrifuged under the same conditions, and preserved at −80° C. The cryopreserved cells were thawed in ice and suspended in 30 mL of buffer A containing Complete Protease Inhibitor (Boehringer) (50 mM tris buffer (pH 7.4) containing 20% Glycerol, 0.15 M NaCl). The cells were disrupted 3 times at 20,000 rpm for 30 sec using a polytron homogenizer (Kinematica). The disrupt was clarified by centrifugation at 40,000 rpm for 30 min and filtered through a 0.45 μm filter. The filtrate was passed through a column packed with 4 mL of Anti-FLAG M2 Affinity Gel (Sigma Aldrich Co.) at a flow rate of about 0.5 mL/min. The column was washed with buffer A, and eluted with buffer A containing 100 μg/mL of FLAG peptide. The eluate was concentrated with Vivaspin 20 having a molecular weight cut off of 30 K (Vivascience). The concentrate was purified by gel filtration using Hi-Load 16/60 Superdex 200 pg (GE Healthcare Bioscience) equilibrated with buffer A. The fractions containing EGFR intracellular domain were collected and cryopreserved at −80° C.
EGFR kinase reaction was carried out using a 96-well plate. As a buffer for Kinase reaction, a buffer of a composition of 50 mM Tris-HCl (pH 7.5), 5 mM MnCl2, 2 mM dithiothreitol and 0.01% Tween-20 was used. […]

T1 sequence (P00533 669-1210): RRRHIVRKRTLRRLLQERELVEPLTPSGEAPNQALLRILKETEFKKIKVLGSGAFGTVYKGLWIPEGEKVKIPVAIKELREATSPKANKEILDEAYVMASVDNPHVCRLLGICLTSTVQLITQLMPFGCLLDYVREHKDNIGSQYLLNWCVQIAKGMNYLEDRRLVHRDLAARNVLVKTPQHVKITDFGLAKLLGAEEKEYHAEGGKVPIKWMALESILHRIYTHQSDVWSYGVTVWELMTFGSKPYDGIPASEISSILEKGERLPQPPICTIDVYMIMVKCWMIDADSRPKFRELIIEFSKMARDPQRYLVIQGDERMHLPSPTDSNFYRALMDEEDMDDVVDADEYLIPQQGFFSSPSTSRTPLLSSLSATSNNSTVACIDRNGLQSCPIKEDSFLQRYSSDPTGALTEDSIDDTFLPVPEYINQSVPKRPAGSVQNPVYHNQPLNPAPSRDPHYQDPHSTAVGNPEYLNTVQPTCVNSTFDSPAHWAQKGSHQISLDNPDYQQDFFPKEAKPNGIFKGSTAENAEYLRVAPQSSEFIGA

O=C(NCCCn1ccnc1)C1=Cc2c(ncnc2Nc2ccc(Oc3cccc(C(F)(F)F)c3)c(Cl)c2)NCC1 [Example 115, 4-({3-chloro-4-[3-(trifluoromethyl)phenoxy]phenyl}amino)-N-[3-(1H-imidazol-1-yl)propyl]-8,9-dihydro-7H-pyrimido[4,5-b]azepine-6-carboxamide]
inhibition at 1 µM: 95%
